The nature of this data set: Cleavage of dipeptide-extended prodrugs on incubation in PBS (HPLC/MS). It counts as physicochemical. How it is done: Preliminary analyses were performed with these crude peptides to get an approximation of their relative conversion rates in Phosphate Buffered Saline (PBS) buffer (pH, 7.2) using high performance liquid chromatography (HPLC) and MALDI analysis. The crude peptide samples were dissolved in the PBS buffer at a concentration of 1 mg/ml. 1 ml of the resulting solution was stored in a 1.5 ml HPLC vial which was then sealed and incubated at 37° C. Aliquots of 100 μl were drawn out at various time intervals, cooled to room temperature and analyzed by HPLC.
HPLC analyses were performed on a 150 mm×4.6 mm C18 Vydac column. The flow rate was 1 ml/min. […] A linear gradient was employed (40% to 70% B in 15 minutes).
Each N-terminally extended peptide was incubated in PBS buffer at 37° C. for approximately a week. Alternatively, each peptide was heated for 120 min at 100° C. to accelerate the amide bond cleavage. Cleavage of the prodrugs was analyzed by reverse phase HPLC and MS.
To explore the possible formation of 2,5-diketopiperazine (DKP) or 2,5-diketomorpholine (DMP) and the simultaneous generation of HO-F^7,GLP(8-36)-CEX, the prodrug was incubated in PBS buffer at 37° C. for approximately a week. The peptide was also heated at 100° C. to determine the susceptibility to cleavage (Table 4).

Where a SMILES comes first, the peptide text is derived from it. Side-chain parts run from the residue outwards.

Consider `CC[C@H](C)[C@H](NC(=O)[C@H](Cc1ccccc1)NC(=O)[C@H](CCC(=O)O)NC(=O)[C@H](CCCCN)NC(=O)[C@H](C)NC(=O)[C@H](C)NC(=O)[C@H](CCC(N)=O)NC(=O)CNC(=O)[C@H](CCC(=O)O)NC(=O)[C@H](CC(C)C)NC(=O)[C@H](Cc1ccc(O)cc1)NC(=O)[C@H](CO)NC(=O)[C@H](CO)NC(=O)[C@@H](NC(=O)[C@H](CC(=O)O)NC(=O)[C@H](CO)NC(=O)[C@@H](NC(=O)[C@H](Cc1ccccc1)NC(=O)[C@H](COC(=O)CNC(=O)CN)NC(=O)CNC(=O)[C@H](CCC(N)=O)NC(=O)[C@H](C)NC(=O)[C@@H](N)Cc1ccccc1)[C@@H](C)O)C(C)C)C(=O)N[C@@H](C)C(=O)N[C@@H](Cc1c[nH]c2ccccc12)C(=O)N[C@@H](CC(C)C)C(=O)N[C@H](C(=O)N[C@@H](CCCCN)C(=O)NCC(=O)NCC(=O)N1CCC[C@H]1C(=O)N[C@@H](CO)C(=O)N[C@@H](CO)C(=O)NCC(=O)N[C@@H](C)C(=O)N1CCC[C@H]1C(=O)N1CCC[C@H]1C(=O)N1CCC[C@H]1C(=O)N[C@@H](CO)C(N)=O)C(C)C` (H-FAQGS([Gly-Gly])FTSDVSSYLEGQAAKEFIAWLVKGGPSSGAPPPS-NH2; N-terminus and C-terminus assumed), for which the half-life (buffer, PBS pH 7.2, 37° C.) is 2.7 h. Besides, the “prodrug converted to the active entity” value (in 5 hours, worked out from the half life ([…])) is listed as “approximately 70%”.

Usually half-life stands for the time needed for the level to fall by half in the phase considered.

(Values after US9089539B2 (Indiana University Research and Technology Corporation, priority 2008, dated 2015).)
